Data on 19 molecules can be found in patent publication US10501460B2, “Heterocyclic compounds and uses thereof” (Plexxikon Inc., priority 2013, dated 2019).

Usually IC50 stands for the concentration needed to halve the response being measured. Higher therefore signals a need for much substance.

The subject of one test is bromodomain. Put plainly: Bromodomain cell assays of Example 40 (at least one of them). To be noted: in at least one of the bromodomain cell assays described in Example 40. It is filed as cell-based. The gist of the method: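 Growth inhibition: 3000 MV-4-11, MOLM-13, MM.1S or neuroblastoma cells/well got an 8-point 1:3 series from 10 μM top (0.2% DMSO) for 72 h, then CellTiter-Glo luminescence. Myc reporter: MV-4-11 with E-box firefly luciferase, 24 h exposure, One-Glo luminescence plus CellTiter-Fluo cell count. pIC50 from four-parameter fit.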

The next test deals with MV-4-11. Put plainly: Oncology cell growth assay MV-4-11 (CellTiter Glo, 72 hours). The format is cell-based. To be noted: Homo sapiens, MV4-11, 72 h; MV-4-11 cell growth inhibitory activity, 3d. The gist of the method: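 Growth read by CellTiter Glo luminescence after 72 h compound exposure of MV-4-11 AML cells (MLL-AF4), using 8-point 1:3 series to 10 μM final in 0.2% DMSO. Data normalized to DMSO wells, four-parameter fit yields pIC50.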
Background: ATP-based viability assays read luminescence as a measure of living cells.

Each structure is given as a SMILES string.

As to `C=CCn1cc(-c2cn(C(C)c3ccccc3)c3cc(-c4c(C)noc4C)cnc23)cn1` (centres unmarked) [P-0201, 4-[3-(1-allylpyrazol-4-yl)-1-(1-phenylethyl)pyrrolo[3,2-b]pyridin-6-yl]-3,5-dimethyl-isoxazole], the IC50 with bromodomain is under 10 µM; in the test on MV-4-11, at most 1 µM.
In the same order, the values of `COCCn1cc(-c2cn(C(C)c3ccccc3)c3cc(-c4c(C)noc4C)cnc23)cn1` (centres unmarked) [P-0203, 4-[3-[1-(2-methoxyethyl)pyrazol-4-yl]-1-(1-phenylethyl)pyrrolo[3,2-b]pyridin-6-yl]-3,5-dimethyl-isoxazole] are under 10 µM and at most 1 µM.
Turning to `Cc1noc(C)c1-c1cnc2c(-c3cnn(C4CCOC4)c3)cn(C(C)c3ccccc3)c2c1` (centres unmarked) [P-0204, 3,5-dimethyl-4-[1-(1-phenylethyl)-3-(1-tetrahydrofuran-3-ylpyrazol-4-yl)pyrrolo[3,2-b]pyridin-6-yl]isoxazole], the IC50 was under 10 µM in the test on bromodomain and at most 1 µM in the test on MV-4-11.
The matching figures for `Cc1nn(C)cc1-c1cn(C(C)c2ccccc2)c2cc(-c3c(C)noc3C)cnc12` (centres unmarked) [P-0205, 4-[3-(1,3-dimethylpyrazol-4-yl)-1-(1-phenylethyl)pyrrolo[3,2-b]pyridin-6-yl]-3,5-dimethyl-isoxazole]: under 10 µM and at most 1 µM.
The matching figures for `Cc1noc(C)c1-c1cnc2c(-c3cnn(C)c3)cn(C(C(=O)O)c3ccccc3)c2c1` (centres unmarked) [P-0206, 2-[6-(3,5-dimethylisoxazol-4-yl)-3-(1-methylpyrazol-4-yl)pyrrolo[3,2-b]pyridin-1-yl]-2-phenyl-acetic acid]: under 10 µM and 1 to 10 µM.
The matching figures for `Cc1noc(C)c1-c1cnc2c(-c3cnn(C)c3)cn(C(C(=O)NC3CC3)c3ccccc3)c2c1` (centres unmarked) [P-0207, N-cyclopropyl-2-[6-(3,5-dimethylisoxazol-4-yl)-3-(1-methylpyrazol-4-yl)pyrrolo[3,2-b]pyridin-1-yl]-2-phenyl-acetamide]: under 10 µM and at most 1 µM.
Turning to `Cc1noc(C)c1-c1cnc2c(-c3cnn(C)c3)cn(CC3CCC(F)(F)CC3)c2c1` [P-0209, 4-[1-[(4,4-difluorocyclohexyl)methyl]-3-(1-methylpyrazol-4-yl)pyrrolo[3,2-b]pyridin-6-yl]-3,5-dimethyl-isoxazole], the IC50 is under 10 µM with bromodomain and at most 1 µM in the test on MV-4-11.
The matching figures for `Cc1noc(C)c1-c1cnc2c(-c3cnn(C(F)F)c3)cn(CC3CCC(F)(F)CC3)c2c1` [P-0210, 4-[1-[(4,4-difluorocyclohexyl)methyl]-3-[1-(difluoromethyl)pyrazol-4-yl]pyrrolo[3,2-b]pyridin-6-yl]-3,5-dimethyl-isoxazole]: under 10 µM and at most 1 µM.
The matching figures for `[2H]C([2H])(C1CCC(F)(F)CC1)n1cc(-c2cnn(C)c2)c2ncc(-c3c(C)noc3C)cc21` [P-0211, 4-[1-[dideuterio-(4,4-difluorocyclohexyl)methyl]-3-(1-methylpyrazol-4-yl)pyrrolo[3,2-b]pyridin-6-yl]-3,5-dimethyl-isoxazole]: under 10 µM and at most 1 µM.
The matching figures for `Cc1noc(C)c1-c1cnc2c(-c3cnn(C)c3)cn(CC3(F)CCCCC3)c2c1` [P-0212, 4-[1-[(1-fluorocyclohexyl)methyl]-3-(1-methylpyrazol-4-yl)pyrrolo[3,2-b]pyridin-6-yl]-3,5-dimethyl-isoxazole]: under 10 µM and at most 1 µM.
Regarding `Cc1noc(C)c1-c1cnc2c(-c3cnn(C)c3)cn(CC3CC(F)(F)C3)c2c1` [P-0213, 4-[1-[(3,3-difluorocyclobutyl)methyl]-3-(1-methylpyrazol-4-yl)pyrrolo[3,2-b]pyridin-6-yl]-3,5-dimethyl-isoxazole], the half-inhibitory concentration (IC50) was under 10 µM in the test on bromodomain and at most 1 µM in the test on MV-4-11.
In the same order, the values of `[2H]C([2H])(C1CC(F)(F)C1)n1cc(-c2cnn(C)c2)c2ncc(-c3c(C)noc3C)cc21` [P-0214, 4-[1-[dideuterio-(3,3-difluorocyclobutyl)methyl]-3-(1-methylpyrazol-4-yl)pyrrolo[3,2-b]pyridin-6-yl]-3,5-dimethyl-isoxazole] are under 10 µM and at most 1 µM.
In the same order, the values of `Cc1noc(C)c1-c1cnc2c(-c3cc(C(F)(F)F)n[nH]3)cn(C(C)c3ccccc3)c2c1` (centres unmarked) [P-0215, 3,5-dimethyl-4-[1-(1-phenylethyl)-3-[3-(trifluoromethyl)-1H-pyrazol-5-yl]pyrrolo[3,2-b]pyridin-6-yl]isoxazole] are under 10 µM and at most 1 µM.
The matching figures for `Cc1noc(C)c1-c1cnc2c(-c3cnn(C4CC4)c3)cn(C(C)c3ccccc3)c2c1` (centres unmarked) [P-0216, 4-[3-(1-cyclopropylpyrazol-4-yl)-1-(1-phenylethyl)pyrrolo[3,2-b]pyridin-6-yl]-3,5-dimethyl-isoxazole]: under 10 µM and at most 1 µM.
Turning to `[2H]C([2H])(O)C(c1ccccc1)n1cc(-c2cnn(C)c2)c2ncc(-c3c(C)noc3C)cc21` (centres unmarked) [P-0218, 1,1-dideuterio-2-[6-(3,5-dimethylisoxazol-4-yl)-3-(1-methylpyrazol-4-yl)pyrrolo[3,2-b]pyridin-1-yl]-2-phenyl-ethanol], the IC50 is under 10 µM in the test on bromodomain and at most 1 µM in the test with MV-4-11.
In the same order, the values of `[2H]C([2H])(C1CCC(F)(F)CC1)n1cc(-c2cnn(C(F)F)c2)c2ncc(-c3c(C)noc3C)cc21` [P-0219, 4-[1-[dideuterio-(4,4-difluorocyclohexyl)methyl]-3-[1-(difluoromethyl)pyrazol-4-yl]pyrrolo[3,2-b]pyridin-6-yl]-3,5-dimethyl-isoxazole] are under 10 µM and at most 1 µM.
The matching figures for `Cc1noc(C)c1-c1cnc2c(-c3cnn(C)c3)cn([C@@H](C)c3ccccc3)c2c1` [P-0222, 3,5-dimethyl-4-[3-(1-methylpyrazol-4-yl)-1-[(1S)-1-phenylethyl]pyrrolo[3,2-b]pyridin-6-yl]isoxazole]: under 10 µM and at most 1 µM.
In the same order, the values of `Cc1noc(C)c1-c1cnc2c(-c3cnn(C)c3)cn([C@H](C)c3ccccc3)c2c1` [P-0223, 3,5-dimethyl-4-[3-(1-methylpyrazol-4-yl)-1-[(1R)-1-phenylethyl]pyrrolo[3,2-b]pyridin-6-yl]isoxazole] are under 10 µM and at most 1 µM.
Take `Cc1noc(C)c1-c1cnc2c(I)cn(C(C)c3ccccc3)c2c1` (centres unmarked) [P-0224, 4-[3-iodo-1-(1-phenylethyl)pyrrolo[3,2-b]pyridin-6-yl]-3,5-dimethyl-isoxazole]: the IC50 in the test on bromodomain was under 10 µM; with MV-4-11, at most 1 µM.
